These results are taken from ChEMBL document CHEMBL1221331, “Discovery of biphenylketones as dual modulators of inflammation and bone loss” (Bioorg Med Chem Lett, 2010).

As usually defined, the IC50 is the concentration at which inhibition is half-maximal.

One test deals with J774. The test is described as follows: Cytotoxicity against mouse J774 cells expressing RANKL signaling by Alamar blue assay. It counts as functional, cell-based.
A short description of test [1]: Cytotoxicity against mouse osteoclast cells expressing RANKL signaling by Alamar blue assay. It counts as functional, cell-based. On the technique in general: Alamar Blue is a resazurin reagent that responds to reducing activity.
The nature of test [2]: Inhibition of NFkappa signaling in mouse macrophages assessed as reduction in TNF-alpha-induced IkapppaB phosphorylation at 50 uM pretreated for 1 hr before TNFalpha challenge by Western blotting.
Test [3] addresses T1, Tumor necrosis factor ligand superfamily member 11 (Mus musculus) (UniProt O35235).
T1 sequence (whole entry): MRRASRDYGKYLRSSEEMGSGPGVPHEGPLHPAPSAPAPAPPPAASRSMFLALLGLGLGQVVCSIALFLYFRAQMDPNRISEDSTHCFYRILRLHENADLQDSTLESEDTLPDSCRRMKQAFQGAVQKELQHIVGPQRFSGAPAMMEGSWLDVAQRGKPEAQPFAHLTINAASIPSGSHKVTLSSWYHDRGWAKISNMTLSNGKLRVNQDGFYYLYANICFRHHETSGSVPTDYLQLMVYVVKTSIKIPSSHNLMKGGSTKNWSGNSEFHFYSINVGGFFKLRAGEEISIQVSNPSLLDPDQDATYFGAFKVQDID
Briefly: Inhibition of NFkappa signaling in mouse macrophages assessed as reduction in RANKL-induced IkapppaB phosphorylation at 50 uM pretreated for 1 hr before RANKL challenge by Western blotting. Background: In western blotting, separated proteins are transferred to a membrane and probed.

Test [4] in a line: Inhibition of NFkappa signaling in mouse macrophages assessed as reduction in TNF-alpha-induced IkapppaB phosphorylation at 10 uM pretreated for 1 hr before TNFalpha challenge by Western blotting.
In test [5] the target is T1, Tumor necrosis factor ligand superfamily member 11 (Mus musculus). The test is described as follows: Inhibition of NFkappa signaling in mouse macrophages assessed as reduction in RANKL-induced IkapppaB phosphorylation at 10 uM pretreated for 1 hr before RANKL challenge by Western blotting.
Test [6] relates to Mus musculus. Briefly: Antiarthritic activity in mouse assessed as inhibition of collagen-induced arthritis at 10 mg/kg/day, po administered 15 days post collagen challenge. It counts as functional, organism-based.
The nature of test [7]: Cytotoxicity against mouse osteoblast cells by alamar blue assay. It counts as cell-based.
Test [8] relates to Mus musculus. The test is described as follows: Effect on ovariectomy-induced bone loss in mouse assessed as reduction in trabecular bone mineral density at 20 mg/kg/day, po (reference value: bone mineral density loss = 34%). It counts as functional, Trabecula. Details: scale not given: the % may be the effect or the level left.
Test [9] concerns Mus musculus. Briefly: Antiarthritic activity in mouse assessed as inhibition of collagen-induced arthritis at 10 mg/kg/day, ip administered 15 days post collagen challenge. It counts as functional, organism-based.
The test system of test [10] is Mus musculus. The test is described as follows: Anti-resorptive activity against ovariectomy-induced bone loss in mouse assessed as increase in trabecular bone mineral density at 20 mg/kg/day, po relative to untreated control. It counts as functional, Trabecula.

Active and inactive are the calls of the source. The calls are words filed in the database; no cut-off is given here.

For the compound `OCCCCCC(O)c1ccc(-c2ccc(F)cc2)cc1Cl` (stereo not given), in the test on J774, the IC50 is 8 µM. In the case of `COc1ccc(-c2ccc(C(=O)CCCCCO)cc2)cc1OC`, the figures for the IC50 (in the test on J774; in [1]) were 60 µM and 14 µM, respectively. Turning to `OCCCCCC(O)c1ccc(-c2ccc(F)cc2F)cc1` (stereo not given), in the test with J774, half-maximal inhibition (IC50) required 8 µM. For `Cc1cccc(-c2ccc(C(=O)CCCCCO)cc2)c1`, the IC50 in the test on J774 worked out at 100 µM. Moreover, the inhibition entry in test [2] and in [3] was “inactive” each time.

In the case of `O=C(CCCCCO)c1ccc(-c2ccc(F)c(F)c2)cc1`, the IC50 with J774 came to 20 µM. As for `OCCCCCC(O)c1ccc(-c2ccccc2O)cc1` (stereo not given), the half-maximal inhibitory concentration (IC50) with J774 amounted to 40 µM. As for `Cc1cc(C(=O)CCCCCO)ccc1-c1ccc(F)cc1F`, the values for the concentration for half-maximal inhibition (IC50) (with J774; in test [1]) were 8 µM and 1.5 µM, respectively. Besides, the inhibition result (in [4]; in test [5]; in the test on Mus musculus [6]) was “Active” throughout.

The compound `OCCCCCC(O)c1ccc(-c2ccc(Cl)cc2)cc1` (stereo not given) registered an IC50 in the test with J774 of 17 µM. Same read-out and setting: the result for `OCCCCCC(O)c1ccc(-c2ccccc2)c(F)c1` (stereo not given) reads 17 µM. `Cc1cc(F)ccc1-c1ccc(C(=O)CCCCCO)cc1`: the IC50 with J774 amounted to 20 µM. For `COc1cc(F)ccc1-c1ccc(C(O)CCCCCO)cc1` (stereo not given), half-maximal inhibition in the test on J774 (IC50) was put at 70 µM. Regarding `O=C(CCCCCO)c1ccc(-c2ccc(Cl)cc2Cl)cc1`, the results for the IC50 (in the test on J774; in [1]; in test [7]) were 8 µM, 0.8 µM and more than 100 µM, respectively. The inhibition entry (in test [4]; in test [5]; in the test with Mus musculus [6]; in the test with Mus musculus [9]) was “Active” in each case. Also, the Activity is -6% with Mus musculus [8] and 6% in the test on Mus musculus [10]. In the test with J774, `O=C(CCCCCO)c1ccc(-c2ccc(C(F)(F)F)cc2C(F)(F)F)cc1` yielded an IC50 of 23 µM. Still for that read-out and setting: the result for `OCCCCCC(O)c1ccc(-c2ccc(OC(F)(F)F)cc2)cc1` (stereo not given) reads 14 µM. Turning to `OCCCCCCc1ccc(-c2ccccc2)cc1`, the inhibition entry in test [4], in test [2] and in test [3] was “inactive” each time. With `CSc1ccc(-c2ccc(C(O)CCCCCO)cc2)cc1` (stereo not given), in the test on J774, the IC50 amounted to 24 µM. `O=C(CCCCCO)c1ccc(-c2ccccc2)cc1`: the IC50 in the test on J774 is 22 µM; in test [1], 9 µM; in [7], more than 100 µM. In the test with Mus musculus [8], the Activity was determined as 21%. Regarding `O=C(CCCCCO)c1ccc(-c2ccc(F)cc2F)cc1Cl`, the values for the IC50 (with J774; in test [1]; in test [7]) were 7 µM, 3 µM and more than 100 µM, respectively. In addition, the Activity with Mus musculus [10] is -3%. In turn, `CN(C)c1ccc(-c2ccc(C(O)CCCCCO)cc2)cc1` (stereo not given) had an IC50 with J774 of 28 µM. As to `Cc1cc(S(=O)(=O)NCCCCO)ccc1-c1ccc(F)cc1F`, the inhibition result with Mus musculus [6] is “Active”. `OCCCCCC(O)c1ccc(-c2ccccc2)cc1` (stereo not given): the IC50 is 22 µM in the test with J774, 8 µM in test [1] and more than 100 µM in test [7]. Consider `OCCCCCC(O)c1ccc(-c2ccc(O)cc2)cc1` (stereo not given), for which the IC50 in the test on J774 amounted to 15 µM. Same read-out and setting: the result for `OCCCCCC(O)c1ccc(-c2ccc(F)cc2)cc1` (stereo not given) reads 18 µM. In the case of `Cc1cc(C(O)CCCCCO)ccc1-c1ccc(F)cc1F` (stereo not given), the values for the IC50 (in the test with J774; in [1]; in test [7]) were 8 µM, 1.3 µM and more than 100 µM, respectively. Take `Cc1cccc(-c2ccc(C(O)CCCCCO)cc2)c1` (stereo not given): in the test with J774, the IC50 was more than 100 µM. As to `OCCCCCC(O)c1ccc(-c2ccc(F)cc2)cc1F` (stereo not given), half-maximal inhibition in the test with J774 (IC50) required 14 µM. For `Cc1ccccc1-c1ccc(C(O)CCCCCO)cc1` (stereo not given), inhibition in the test on J774 was half-maximal at 24 µM (IC50). As to `COc1ccc(-c2ccc(C(=O)CCCCCO)cc2)c(OC)c1`, the half-inhibitory concentration (IC50) was 50 µM in the test with J774 and 13 µM in test [1]. `OCCCCCC(O)c1ccc(-c2cccc(Cl)c2)cc1` (stereo not given) gave a half-maximal inhibitory concentration (IC50) with J774 of more than 100 µM.

The compound `OCCCCCC(O)c1ccc(-c2ccc(Br)cc2)cc1` (stereo not given) registered an IC50 in the test on J774 of 20 µM. The same measure, in the same setting: in the case of `Cc1ccc(-c2ccc(C(O)CCCCCO)cc2)cc1` (stereo not given) it was 22 µM.

`O=C(CCCCCO)c1ccc(-c2ccc(F)cc2Cl)cc1` registered an IC50 in the test on J774 of 15 µM. Still for that read-out and setting: in the case of `Cc1cc(-c2ccc(F)cc2F)ccc1C(=O)CCCCCO` it was 4 µM.

Compound `Cc1cc(F)ccc1-c1ccc(C(O)CCCCCO)cc1` (stereo not given) had an IC50 with J774 of 20 µM. Take `OCCCCCC(O)c1ccc(-c2ccc(C(F)(F)F)cc2)cc1` (stereo not given): the IC50 in the test with J774 came to 13 µM. Take `O=C(CCCCCO)c1ccc(-c2ccc(F)cc2F)cc1`: the IC50 in the test with J774 is 6 µM; in test [1], 2 µM; in [7], more than 100 µM. In addition, in the test with Mus musculus [8], the Activity was 10%. On to `OCCCCCC(O)c1ccc(-c2ccccc2F)cc1` (stereo not given), for which, in the test with J774, the half-maximal inhibitory concentration (IC50) was 22 µM. Same read-out and setting: in the case of `CCOc1ccc(-c2ccc(C(O)CCCCCO)cc2)cc1` (stereo not given) it was 14 µM. The compound `OCCCCCC(O)c1ccc(-c2ccc(Cl)cc2Cl)cc1` (stereo not given) came in with a half-maximal inhibitory concentration (IC50) in the test on J774 of 8 µM.
